From PMC10253817, “Design, Pharmacological Characterization, and Molecular Docking of Minimalist Peptidomimetic Antagonists of α4β1 Integrin” (International Journal of Molecular Sciences, 2023)

Assays:
[1] = system: ERK1/2; experiment: Western blot, FN-induced ERK1/2 phosphorylation in Jurkat E6.1 cells; type: cell-based; conditions: Jurkat E6.1 cells pre-treated with 10^−7, 10^−8, 10^−9 M, then FN (10 µg/mL) 30 min
Experimental: To this purpose, Jurkat E6.1 cells were pre-treated with different concentrations (10^−7, 10^−8, 10^−9 M) of the compounds and then exposed to FN (10 µg/mL) for 30 min. […] In addition, the effects observed on intracellular signaling were concentration-dependent, except for compound 13 on AKT activation.
Western blot analysis was performed as previously described, with the following modifications. […] For integrin antagonists, JurkatE6.1 cells were subsequently incubated with FN (10 μg/mL) at 37 °C for 30 min. At the end of the incubation period, Jurkat E6.1 cells were lysed on ice using T-PER® (Tissue Protein Extraction Reagent, Life Technologies Italia, Milan, Italy), supplemented with a phosphatase inhibitor cocktail. Protein extracts were quantified using a BCA Protein Assay (Pierce, Rockford, IL, USA). The proteins from the cytoplasmatic extract were denatured at 95 °C for 3 min, then equal amounts of protein samples (30–50 μg) were loaded and separated via 12% SDS-PAGE. Proteins were transferred onto a nitrocellulose membrane (Biorad, Hercules, CA, USA), which was blocked with 5% nonfat milk in a Tris-buffered saline (10 mM Tris-HCl, pH 8, containing 150 mM NaCl) containing 0.1% Tween 20 for 1 h at room temperature. Membranes were stained overnight at 4 °C with anti-actin antibody (1:5000, Merck Life Science, Milan, Italy) or with anti-phospho-ERK1/2, anti-total ERK1/2, anti-phospho-AKT, anti-total-AKT, or anti-phospho-JNK antibodies (1:1000; Cell Signaling Technology, Danvers, MA, USA). The membranes were incubated with anti-rabbit peroxidase-conjugated secondary antibodies at a dilution of 1:8000. Blots were developed with a SuperSignal West Pico chemiluminescent substrate. Protocols for digital image acquisition and analysis have previously been described.

[2] = target: T1, α4β1 integrin (Homo sapiens, UniProt P05556+P13612); experiment: α4β1 integrin-mediated Jurkat E6.1 cell adhesion to FN; type: cell-based; conditions: Jurkat E6.1 cell adhesion to FN (10 μg/mL); antag. = reduced cell adhesion; mean ± SD
T1 construct: Jurkat E6.1 cell line, which endogenously expresses α4β1 integrin; host or cells: Jurkat E6.1
Experimental: To investigate the ability of the new peptides to modulate integrin-mediated cell adhesion, we employed cell adhesion assays using a Jurkat E6.1 cell line, which endogenously expresses α4β1 integrin and the natural ligand FN. […] On the contrary, ligands able to increase cell adhesion are defined as agonists.
The assays were performed as previously described. Briefly, regarding adhesion assays on Jurkat E6.1 or HL-60 cells, black 96-well plates (Corning Costar) were coated overnight at 4 °C with FN or Fg (10 μg/mL) or VCAM-1 (2 μg/mL) in order to investigate α4β1 integrin-mediated cell adhesion. To avoid any kind of unspecific binding, plates were incubated with 100 μL/well of blocking solution (1% BSA in HBSS) for 30 min at 37 °C. Cells were counted, stained with the CellTracker green CMFDA (12.5 μM, 30 min at 37 °C, Life Technologies Italia, Milan, Italy) and after three washes, were preincubated with increasing concentrations of new compounds (10^−10–10^−4 M) or with the vehicle (methanol) for 30 min at 37 °C.
Then, cells were plated (500,000/well) on coated wells and incubated for 30 min at 37 °C. Afterwards nonadherent cells were removed via washing with a blocking solution, and the remaining adhered cells were lysed with 0.5% Triton X-100 in PBS (30 min at 4 °C). Green fluorescence was measured (Ex485 nm/Em535 nm) using an EnSpire Multimode Plate Reader (PerkinElmer, Waltham, MA, USA).
In both types of adhesion assay, the number of adherent cells was determined via comparison with a standard curve made in the same plate. Experiments were carried out in quadruplicate and repeated at least three times. Data analysis and EC50 or IC50 values were calculated using GraphPad Prism 9.5.1 (GraphPad Software, San Diego, CA, USA).

T1 sequence (P13612 34-1032): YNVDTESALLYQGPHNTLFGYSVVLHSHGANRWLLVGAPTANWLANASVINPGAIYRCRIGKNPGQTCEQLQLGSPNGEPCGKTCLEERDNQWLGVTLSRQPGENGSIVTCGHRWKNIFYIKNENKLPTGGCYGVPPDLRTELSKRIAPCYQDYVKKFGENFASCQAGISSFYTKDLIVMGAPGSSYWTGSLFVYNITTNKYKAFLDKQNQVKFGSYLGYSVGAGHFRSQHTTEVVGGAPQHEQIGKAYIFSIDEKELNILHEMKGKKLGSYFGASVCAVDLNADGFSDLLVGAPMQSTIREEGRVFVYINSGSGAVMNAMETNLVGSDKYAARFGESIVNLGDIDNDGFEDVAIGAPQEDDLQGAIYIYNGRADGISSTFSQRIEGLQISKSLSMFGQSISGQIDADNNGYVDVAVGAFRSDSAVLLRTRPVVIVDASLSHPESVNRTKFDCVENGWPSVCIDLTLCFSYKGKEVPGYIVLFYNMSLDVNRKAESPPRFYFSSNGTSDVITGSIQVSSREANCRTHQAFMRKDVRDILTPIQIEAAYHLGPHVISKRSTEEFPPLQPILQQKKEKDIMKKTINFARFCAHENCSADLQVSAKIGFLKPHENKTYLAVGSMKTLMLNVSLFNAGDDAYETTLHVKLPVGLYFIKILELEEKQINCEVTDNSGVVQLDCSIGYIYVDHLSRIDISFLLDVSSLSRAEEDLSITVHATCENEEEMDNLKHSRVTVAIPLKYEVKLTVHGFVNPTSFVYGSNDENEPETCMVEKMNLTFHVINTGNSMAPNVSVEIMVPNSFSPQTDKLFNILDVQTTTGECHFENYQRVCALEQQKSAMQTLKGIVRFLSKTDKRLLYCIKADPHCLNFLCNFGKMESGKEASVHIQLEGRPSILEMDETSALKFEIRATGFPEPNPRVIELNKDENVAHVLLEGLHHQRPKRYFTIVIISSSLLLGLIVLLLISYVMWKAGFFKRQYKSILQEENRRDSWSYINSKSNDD
T1 sequence (P05556 21-798): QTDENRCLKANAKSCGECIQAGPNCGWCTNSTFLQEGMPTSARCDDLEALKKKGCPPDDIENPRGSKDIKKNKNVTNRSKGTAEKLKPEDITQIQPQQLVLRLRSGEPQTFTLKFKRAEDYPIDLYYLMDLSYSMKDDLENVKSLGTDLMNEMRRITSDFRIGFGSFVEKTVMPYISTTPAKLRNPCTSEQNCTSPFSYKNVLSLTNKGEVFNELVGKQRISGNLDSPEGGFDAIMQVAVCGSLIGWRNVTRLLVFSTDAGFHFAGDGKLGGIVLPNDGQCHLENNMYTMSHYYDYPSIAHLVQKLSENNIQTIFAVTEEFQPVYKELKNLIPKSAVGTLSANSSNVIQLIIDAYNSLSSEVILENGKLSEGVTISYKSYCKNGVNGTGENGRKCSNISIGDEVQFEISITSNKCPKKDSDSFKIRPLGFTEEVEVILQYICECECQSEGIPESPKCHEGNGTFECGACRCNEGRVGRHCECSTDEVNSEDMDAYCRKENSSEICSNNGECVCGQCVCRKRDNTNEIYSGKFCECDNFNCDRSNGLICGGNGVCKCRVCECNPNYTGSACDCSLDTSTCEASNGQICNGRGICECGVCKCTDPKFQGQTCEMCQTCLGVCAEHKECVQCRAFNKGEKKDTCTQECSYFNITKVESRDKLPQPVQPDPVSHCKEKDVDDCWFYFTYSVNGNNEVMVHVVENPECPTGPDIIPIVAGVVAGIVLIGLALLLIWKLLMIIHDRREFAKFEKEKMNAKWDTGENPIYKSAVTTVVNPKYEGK

IC50 [2] [nM]	SMILES	FN-induced ERK1/2 phosphorylation [1]
	CC(=O)N[C@@H](CNC(=O)Cc1ccc(NC(=O)Nc2ccccc2C)cc1)C(=O)NCC(=O)O [compound 3]	significantly prevented
	CCCNC(=O)[C@@H](CC(=O)NCC(=O)O)NC(=O)Cc1ccc(NC(=O)Nc2ccccc2C)cc1 [compound 8]	significantly prevented
416	Cc1ccccc1NC(=O)Nc1ccc(CNC(=O)C[C@@H](C)NC(=O)CC(=O)O)cc1 [compound 13]	significantly prevented
